# According to PMC3486884 (PLoS Pathogens, 2012):
# Like-named read-outs stand apart in the source and are kept apart here.
# Columns and labels:
# HRV1A [1] = settings: for relative infection: n=2
# HRV1A [2] = test: microbe, parasite or virus in culture; settings: Human rhinovirus sp., M-HeLa, 7 h; for activity at 0.03 µM: read-out: HRV1A infection (dsRNA), 0.03 µM; for activity at 0.1 µM: read-out: HRV1A infection (dsRNA), 0.10 µM; for activity at 0.31 µM: read-out: HRV1A infection (dsRNA), 0.31 µM; for activity at 0.93 µM: read-out: HRV1A infection (dsRNA), 0.93 µM; for activity at 2.78 µM: read-out: HRV1A infection (dsRNA), 2.78 µM; for activity at 8.33 µM: read-out: HRV1A infection (dsRNA), 8.33 µM; for activity at 25 µM: read-out: HRV1A infection (dsRNA), 25.00 µM
# CVA21 = settings: n=2
# HRV14 = settings: n=2
# HRV16 [3] = test: microbe, parasite or virus in culture; settings: Human rhinovirus sp., HRV16, HeLa, read-out: IC50 (HRV16)
# HRV16 [4] = settings: n=2
# [5] = tested on: influenza virus (strain A/Puerto Rico/8/34/H1N1 depicted PR8); test: microbe, parasite or virus in culture; settings: unidentified influenza virus, A549, read-out: IC50 (PR8)
# CVB3 = settings: n=2
# HRV2 = settings: n=2
# CVB4 = settings: n=2
compound,measurement,setting,value
Nc1ccc(NC(=O)c2cc(Cl)ccc2O)c(Cl)c1 [TVB-1335],"antiviral activity against HRV1A (structure-activity study, in words)",HRV1A [1],eliminated antiviral activity
same,activity at 0.03 µM,HRV1A [2],109%
same,activity at 0.1 µM,HRV1A [2],102%
same,activity at 0.31 µM,HRV1A [2],103%
same,activity at 0.93 µM,HRV1A [2],105%
same,activity at 2.78 µM,HRV1A [2],98%
same,activity at 8.33 µM,HRV1A [2],96%
same,activity at 25 µM,HRV1A [2],104%
O=C(Nc1ccc(NS(=O)(=O)c2ccccc2)cc1Cl)c1cc(Cl)ccc1O [TVB-1336],"antiviral activity against HRV1A (structure-activity study, in words)",HRV1A [1],eliminated antiviral activity
same,activity at 0.03 µM,HRV1A [2],102%
same,activity at 0.1 µM,HRV1A [2],97%
same,activity at 0.31 µM,HRV1A [2],105%
same,activity at 0.93 µM,HRV1A [2],105%
same,activity at 2.78 µM,HRV1A [2],104%
same,activity at 8.33 µM,HRV1A [2],105%
same,activity at 25 µM,HRV1A [2],103%
COc1ccc(Br)cc1C(=O)Nc1cc([N+](=O)[O-])ccc1Cl [TVB-1337],"antiviral activity against HRV1A (structure-activity study, in words)",HRV1A [1],reduced antiviral efficacy
same,activity at 0.03 µM,HRV1A [2],112%
same,activity at 0.1 µM,HRV1A [2],104%
same,activity at 0.31 µM,HRV1A [2],107%
same,activity at 0.93 µM,HRV1A [2],104%
same,activity at 2.78 µM,HRV1A [2],105%
same,activity at 8.33 µM,HRV1A [2],111%
same,activity at 25 µM,HRV1A [2],117%
CCOc1ccccc1C(=O)Nc1ccc([N+](=O)[O-])cc1Cl [TVB-1328],"antiviral activity against HRV1A (structure-activity study, in words)",HRV1A [1],eliminated antiviral activity
same,activity at 0.03 µM,HRV1A [2],99%
same,activity at 0.1 µM,HRV1A [2],90%
same,activity at 0.31 µM,HRV1A [2],86%
same,activity at 0.93 µM,HRV1A [2],89%
same,activity at 2.78 µM,HRV1A [2],90%
same,activity at 8.33 µM,HRV1A [2],95%
same,activity at 25 µM,HRV1A [2],107%
CS(=O)(=O)c1ccc(NC(=O)c2cc(Cl)ccc2O)c(Cl)c1 [TVB-1338],relative infection,CVA21; 0.1 µM,1.02
same,relative infection,CVA21; 0.3 µM,1.05
same,relative infection,CVA21; 0.9 µM,1.03
same,relative infection,CVA21; 2.8 µM,1.05
same,relative infection,CVA21; 8.3 µM,1.06
same,relative infection,CVA21; 25.0 µM,0.81
same,relative infection,HRV14; 0.1 µM,1.07
same,relative infection,HRV14; 0.3 µM,1.12
same,relative infection,HRV14; 0.9 µM,1.20
same,relative infection,HRV14; 2.8 µM,1.17
same,relative infection,HRV14; 8.3 µM,1.13
same,relative infection,HRV14; 25.0 µM,0.62
same,IC50,HRV16 [3],~26.9 µM
same,"antiviral activity against HRV1A (structure-activity study, in words)",HRV1A [1],eliminated antiviral activity
same,relative infection,HRV1A [1]; 0.1 µM,1.02
same,relative infection,HRV1A [1]; 0.3 µM,0.96
same,relative infection,HRV1A [1]; 0.9 µM,1.07
same,relative infection,HRV1A [1]; 2.8 µM,1.12
same,relative infection,HRV1A [1]; 8.3 µM,1.11
same,relative infection,HRV1A [1]; 25.0 µM,0.95
same,relative infection,HRV16 [4]; 0.1 µM,1.09
same,relative infection,HRV16 [4]; 0.3 µM,1.11
same,relative infection,HRV16 [4]; 0.9 µM,1.15
same,relative infection,HRV16 [4]; 2.8 µM,1.13
same,relative infection,HRV16 [4]; 8.3 µM,1.02
same,relative infection,HRV16 [4]; 25.0 µM,0.67
same,IC50,[5],42.9 µM
same,activity at 0.03 µM,HRV1A [2],123%
same,activity at 0.1 µM,HRV1A [2],106%
same,activity at 0.31 µM,HRV1A [2],109%
same,activity at 0.93 µM,HRV1A [2],105%
same,activity at 2.78 µM,HRV1A [2],106%
same,activity at 8.33 µM,HRV1A [2],111%
same,activity at 25 µM,HRV1A [2],112%
same,relative infection,CVB3; 0.1 µM,0.97
same,relative infection,CVB3; 0.3 µM,1.10
same,relative infection,CVB3; 0.9 µM,1.09
same,relative infection,CVB3; 2.8 µM,1.05
same,relative infection,CVB3; 8.3 µM,0.94
same,relative infection,CVB3; 25.0 µM,0.94
same,relative infection,HRV2; 0.1 µM,1.05
same,relative infection,HRV2; 0.3 µM,1.11
same,relative infection,HRV2; 0.9 µM,1.12
same,relative infection,HRV2; 2.8 µM,1.13
same,relative infection,HRV2; 8.3 µM,1.12
same,relative infection,HRV2; 25.0 µM,0.76
same,relative infection,CVB4; 0.1 µM,1.00
same,relative infection,CVB4; 0.3 µM,1.02
same,relative infection,CVB4; 0.9 µM,1.06
same,relative infection,CVB4; 2.8 µM,1.15
same,relative infection,CVB4; 8.3 µM,1.02
same,relative infection,CVB4; 25.0 µM,0.51
COc1ccccc1C(=O)Nc1ccc(C(F)(F)F)cc1Cl [TVB-1323],"antiviral activity against HRV1A (structure-activity study, in words)",HRV1A [1],reduced antiviral efficacy
same,activity at 0.03 µM,HRV1A [2],101%
same,activity at 0.1 µM,HRV1A [2],95%
same,activity at 0.31 µM,HRV1A [2],97%
same,activity at 0.93 µM,HRV1A [2],97%
same,activity at 2.78 µM,HRV1A [2],106%
same,activity at 8.33 µM,HRV1A [2],108%
same,activity at 25 µM,HRV1A [2],113%
